Source: BindingDB's records for doi:10.1002/cbic.201000413 (The University of Edinburgh, 2011)
“And” between values parts separate entries of the source, which are not always exact repeats. Equal values may be shown once.

Assays:
[1] = biological target: T1, Peptidyl-prolyl cis-trans isomerase A (Homo sapiens, UniProt P62937); test: Fluorescence Assay
From the text: The promising ligand from the results obtained from ESI-MS assay are subjected to fluorescence in vitro assay. The fluorescence assay takes advantage of the presence of a single tryptophan residue (Trp121) located close to the active site of CypA.

[2] = biological target: T1, Peptidyl-prolyl cis-trans isomerase A; test: ESI-MS Assay
From the text: Electrospray mass spectrometry assay is a immunophilin-ligand binding assay which allows us to rapidly probe the affinity of potential inhibitors for CypA which rely on the use of soft-ESI conditions to preserve noncovalent interactions between protein and ligand.

[3] = biological target: T1, Peptidyl-prolyl cis-trans isomerase A; test: PPIase Assay
From the text: The promising ligand from the results obtained from ESI-MS assay are subjected to PPIase in vitro assay. The PPIase assay assesses the abil9ity of ligands to inhibit the PPIase activity of CypA.

T1 sequence (P62937 whole entry): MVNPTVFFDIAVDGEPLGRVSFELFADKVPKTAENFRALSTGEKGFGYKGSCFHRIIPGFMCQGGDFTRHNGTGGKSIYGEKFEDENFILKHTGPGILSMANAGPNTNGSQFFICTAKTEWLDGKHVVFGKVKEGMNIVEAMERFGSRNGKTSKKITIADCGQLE

Row | SMILES | Kd [1] | Kd [2] [µM] | Ki [3] [µM]
1 | COC(=O)[C@H](CCCCNC(=O)OCc1ccccc1)C1C(=O)CC2C1=CC(=O)CC2(C)C (some centres undefined) [Cyclophilin Inhibitor, 3a] | 22.8 µM | 128 | > 100
2 | COC(=O)[C@H](CCCN=C(N)N[N+](=O)[O-])C1C(=O)CC2C1=CC(=O)CC2(C)C (some centres undefined) [Cyclophilin Inhibitor, 3c] | 29.6 µM | 31.9 | > 100
3 | COC(=O)[C@H](CCCCNC(C)=O)C1C(=O)CC2C1=CC(=O)CC2(C)C (some centres undefined) [Cyclophilin Inhibitor, 3d] | – | 85.1 | > 100
4 | COC(=O)[C@H](CCCCN)C1C(=O)CC2C1=CC(=O)CC2(C)C (some centres undefined) [Cyclophilin Inhibitor, 15] | 15.9 µM and > 50 µM | 72.6 | –

Now from value to compound:

Row | Kd [1] | Kd [2] [µM] | Ki [3] [µM] | SMILES
5 | 21.9 µM | 113 | 207 | COC(=O)[C@H](CCCCNS(=O)(=O)c1cccc2c(N(C)C)cccc12)C1C(=O)CC2C1=CC(=O)CC2(C)C (some centres undefined) [Cyclophilin Inhibitor, 3e]
6 | – | 133 | – | COC(=O)[C@H](CCCCNS(=O)(=O)c1cccc2c(N(C)C)cccc12)C1C(=O)C[C@@H]2C1=CC(=O)CC2(C)C (some centres undefined) [Cyclophilin Inhibitor, 3f]
